From US12479825B2, “Melanocortin subtype-2 receptor (MC2R) antagonists and uses thereof” (Crinetics Pharmaceuticals, Inc., priority 2019, dated 2025) come the findings set out here.

The target in the assay is T1, hMC2 receptor (Homo sapiens, UniProt Q01718).
T1 construct: host or cells: CRE-bla-CHO-K1 cells, crude membrane fraction
In words: hMC2 membrane binding assay ([125I]ACTH (1-39) Tyr23, SPA). To be noted: crude hMC2R membranes from CRE-bla-CHO-K1 cells expressing hMC2 receptor and hMRAP; 0.2 nM [125I]ACTH (1-39) Tyr23; 1.5 hours at room temperature; read-out: MC2R binding potency. The method, then:
Crude membrane fractions are prepared from CRE-bla-CHO-K1 cells stably expressing hMC2 receptor and hMRAP accessory protein (Thermo Fisher). The cells are grown to 85-100% confluence on standard tissue culture dishes in GlutaMax DMEM growth media (Gibco) with following additives: 10% dialyzed FBS (Gemini), 0.1 mM NEAA (Gibco), 25 mM HEPES (Gibco), 5 μg/mL blasticidin (Goldbio), 100 μg/mL zeocin (Invitrogen), 600 μg/mL hygromycin (Goldbio). To prepare membranes, cells are scraped and collected in 1× Dulbecco's phosphate buffered saline (Corning) and then pelleted at 1000 RPM's. The cell pellet is reconstituted in membrane preparation buffer (20 mM HEPES, 6 mM MgCl2 and 1 mM EGTA, protease inhibitor tablets (Pierce) adjusted to pH 7.4), homogenized using a dounce homogenizer, and the resulting membrane fraction is pelleted by centrifugation at 12,000 RPM's. The membrane pellet is resuspended in membrane preparation buffer, snap freezed and stored at −80° C. for later use.
The hMC2 membrane binding assay utilizes the following components: radiolabel [^125I]ACTH (1-39) Tyr23 (PerkinElmer), wheat germ agglutinin coated PVT SPA beads (PerkinElmer), crude hMC2R membranes, and compounds. Briefly hMC2R membranes are incubated with SPA beads in binding assay buffer (50 mM HEPES, 5 mM MgCl2, 1 mM CaCl2, 0.2% BSA, protease inhibitor tablets (Pierce) adjusted to pH7.4) prior to assay initiation. A dose response of compound (the final concentration of compound is typically 0-10,000 nM), SPA membranes, and [^125I]ACTH (1-39) Tyr23 at a final concentration of 0.2 nM is plated in a 96-well assay plate and allowed to incubate 1.5 hours at room temperature. Assay plates are read using a Top Count NXT and Ki values for compounds are determined using a GraphPad Prism 6 non-linear regression analysis.

T1 sequence (Q01718 whole entry): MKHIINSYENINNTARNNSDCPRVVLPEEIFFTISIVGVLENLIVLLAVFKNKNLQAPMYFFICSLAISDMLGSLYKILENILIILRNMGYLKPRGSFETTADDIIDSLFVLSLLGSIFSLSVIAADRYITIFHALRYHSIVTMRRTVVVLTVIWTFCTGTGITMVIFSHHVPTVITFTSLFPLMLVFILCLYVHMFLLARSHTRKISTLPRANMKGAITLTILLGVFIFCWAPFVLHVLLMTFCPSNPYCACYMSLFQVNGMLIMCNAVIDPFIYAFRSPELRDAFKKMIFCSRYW
T1 sequence (Q8TCY5 whole entry partner): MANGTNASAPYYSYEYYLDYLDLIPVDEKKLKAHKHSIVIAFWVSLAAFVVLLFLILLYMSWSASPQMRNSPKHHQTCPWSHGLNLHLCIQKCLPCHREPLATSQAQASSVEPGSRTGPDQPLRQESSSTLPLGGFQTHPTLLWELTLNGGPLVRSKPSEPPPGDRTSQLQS

As to `CCOc1ncccc1-c1ccc(N2CCN(C(=O)c3ccc(F)cc3C(F)F)C[C@H]2CC)c(OCCN)n1` [1-13, 2-({5-[(2R)-4-[2-(difluoromethyl)-4-fluorobenzoyl]-2-ethylpiperazin-1-yl]-2′-ethoxy-[2,3′-bipyridin]-6-yl}oxy)ethan-1-amine], the Ki was below 10 nM.
Regarding `CCOc1ncccc1-c1ccc(N2CCN(C(=O)N3CCC[C@H]3C(F)(F)F)C[C@H]2CC)c(OCCN)n1` [1-14, 2-({2′-ethoxy-5-[(2R)-2-ethyl-4-[(2S)-2-(trifluoromethyl)pyrrolidine-1-carbonyl]piperazin-1-yl]-[2,3′-bipyridin]-6-yl}oxy)ethan-1-amine], the Ki is below 10 nM.
For the compound `CCOc1ncccc1-c1ccc(N2CCN(C(=O)c3ccc(Cl)cc3C(F)(F)F)C[C@H]2CC)c(OCCNC)n1` [1-15, [2-({5-[(2R)-4-[4-chloro-2-(trifluoromethyl)benzoyl]-2-ethylpiperazin-1-yl]-2′-ethoxy-[2,3′-bipyridin]-6-yl}oxy)ethyl](methyl)amine], the Ki was below 10 nM.
The result for `CCOc1ncccc1-c1ccc(N2CCN(C(=O)c3ccc(Cl)cc3C(F)(F)F)C[C@H]2CC)c(OCCN)n1` [1-16, 2-({5-[(2R)-4-[4-chloro-2-(trifluoromethyl)benzoyl]-2-ethylpiperazin-1-yl]-2′-ethoxy-[2,3′-bipyridin]-6-yl}oxy)ethan-1-amine] reads below 10 nM; that for `CCOc1ccc(C(=O)N2CCN(c3ccc(-c4cccnc4OCC)nc3OCCN(C)C)[C@H](CC)C2)c(C(F)(F)F)n1` [1-17, [2-({2′-ethoxy-5-[(2R)-4-[6-ethoxy-2-(trifluoromethyl)pyridine-3-carbonyl]-2-ethylpiperazin-1-yl]-[2,3′-bipyridin]-6-yl}oxy)ethyl]dimethylamine], below 10 nM; that for `CCOc1ccc(C(=O)N2CCN(c3ccc(-c4cccnc4OCC)nc3O[C@H]3CCNC3)[C@H](CC)C2)c(C(F)(F)F)n1` [1-18, 2′-ethoxy-5-[(2R)-4-[6-ethoxy-2-(trifluoromethyl)pyridine-3-carbonyl]-2-ethylpiperazin-1-yl]-6-[(3S)-pyrrolidin-3-yloxy]-2,3′-bipyridine], below 10 nM.
The result for `CCOc1ccc(C(=O)N2CCN(c3ccc(-c4cccnc4OCC)nc3OC[C@@H](C)N)[C@H](CC)C2)c(C(F)(F)F)n1` [1-19, (2R)-1-({2′-ethoxy-5-[(2R)-4-[6-ethoxy-2-(trifluoromethyl)pyridine-3-carbonyl]-2-ethylpiperazin-1-yl]-[2,3′-bipyridin]-6-yl}oxy)propan-2-amine] reads below 10 nM; that for `CCOc1ccc(C(=O)N2CCN(c3ccc(-c4cccnc4OCC)nc3OC[C@H](C)N)[C@H](CC)C2)c(C(F)(F)F)n1` [1-20, (2S)-1-({2′-ethoxy-5-[(2R)-4-[6-ethoxy-2-(trifluoromethyl)pyridine-3-carbonyl]-2-ethylpiperazin-1-yl]-[2,3′-bipyridin]-6-yl}oxy)propan-2-amine], below 10 nM; that for `CCOc1ccc(C(=O)N2CCN(c3ccc(-c4cccnc4OCC)nc3O[C@H](C)CN)[C@H](CC)C2)c(C(F)(F)F)n1` [1-21, (2R)-2-({2′-ethoxy-5-[(2R)-4-[6-ethoxy-2-(trifluoromethyl)pyridine-3-carbonyl]-2-ethylpiperazin-1-yl]-[2,3′-bipyridin]-6-yl}oxy)propan-1-amine], below 10 nM.
For the compound `CCOc1ccc(C(=O)N2CCN(c3ccc(-c4cccnc4OCC)nc3O[C@@H](C)CN)[C@H](CC)C2)c(C(F)(F)F)n1` [1-22, (2S)-2-({2′-ethoxy-5-[(2R)-4-[6-ethoxy-2-(trifluoromethyl)pyridine-3-carbonyl]-2-ethylpiperazin-1-yl]-[2,3′-bipyridin]-6-yl}oxy)propan-1-amine], the Ki is below 10 nM.
For `CCOc1ncccc1-c1ccc(N2CCN(C(=O)N3CCc4cccc(C#N)c43)C[C@H]2CC)c(OCCNC)n1` [1-23, 1-[(3R)-4-{2′-ethoxy-6-[2-(methylamino)ethoxy]-[2,3′-bipyridin]-5-yl}-3-ethylpiperazine-1-carbonyl]-2,3-dihydro-1H-indole-7-carbonitrile], the Ki is below 10 nM.
Turning to `CCOc1ncccc1-c1ccc(N2CCN(C(=O)N3CCc4cccc(C#N)c43)C[C@H]2CC)c(OCCN)n1` [1-24, 1-[(3R)-4-[6-(2-aminoethoxy)-2′-ethoxy-[2,3′-bipyridin]-5-yl]-3-ethylpiperazine-1-carbonyl]-2,3-dihydro-1H-indole-7-carbonitrile], the Ki is below 10 nM.
Next, `CCOc1ncccc1-c1ccc(N2CCN(C(=O)N3CCc4cc(Cl)cc(C#N)c43)C[C@H]2CC)c(OCCN)n1` [1-25, 1-[(3R)-4-[6-(2-aminoethoxy)-2′-ethoxy-[2,3′-bipyridin]-5-yl]-3-ethylpiperazine-1-carbonyl]-5-chloro-2,3-dihydro-1H-indole-7-carbonitrile]: below 10 nM.
Regarding `CCOc1ncccc1-c1ccc(N2CCN(C(=O)N3CCc4cc(Cl)cc(C#N)c43)C[C@H]2CC)c(OCCNC)n1` [1-26, 5-chloro-1-[(3R)-4-{2′-ethoxy-6-[2-(methylamino)ethoxy]-[2,3′-bipyridin]-5-yl}-3-ethylpiperazine-1-carbonyl]-2,3-dihydro-1H-indole-7-carbonitrile], the Ki is below 10 nM.
Next, `CCOc1ncccc1-c1ccc(N2CCN(C(=O)c3ccc(F)cc3C(F)(F)F)C[C@H]2CC)c(OCCNC)n1` [1-27, [2-({2′-ethoxy-5-[(2R)-2-ethyl-4-[4-fluoro-2-(trifluoromethyl)benzoyl]piperazin-1-yl]-[2,3′-bipyridin]-6-yl}oxy)ethyl](methyl)amine]: below 10 nM; `CCOc1ncccc1-c1ccc(N2CCN(C(=O)c3ccc(Cl)cc3Cl)C[C@H]2CC)c(OCCNC)n1` [1-28, [2-({5-[(2R)-4-(2,4-dichlorobenzoyl)-2-ethylpiperazin-1-yl]-2′-ethoxy-[2,3′-bipyridin]-6-yl}oxy)ethyl](methyl)amine]: below 10 nM; `CCOc1ncccc1-c1ccc(N2CCN(C(=O)c3ccc(F)cc3Cl)C[C@H]2CC)c(OCCNC)n1` [1-29, [2-({5-[(2R)-4-(2-chloro-4-fluorobenzoyl)-2-ethylpiperazin-1-yl]-2′-ethoxy-[2,3′-bipyridin]-6-yl}oxy)ethyl](methyl)amine]: below 10 nM.
Next, `CCOc1ncccc1-c1ccc(N2CCN(C(=O)c3ccc(OC)nc3C(F)(F)F)C[C@H]2CC)c(OCCNC)n1` [1-30, [2-({2′-ethoxy-5-[(2R)-2-ethyl-4-[6-methoxy-2-(trifluoromethyl)pyridine-3-carbonyl]piperazin-1-yl]-[2,3′-bipyridin]-6-yl}oxy)ethyl](methyl)amine]: below 10 nM; `CCOc1ncccc1-c1ccc(C2CCN(c3ccc(C(F)(F)F)cc3C#N)CC2)c(OCCNC)n1` [3-1, 2-(4-(2′-ethoxy-6-(2-(methylamino)ethoxy)-[2,3′-bipyridin]-5-yl)piperidin-1-yl)-5-(trifluoromethyl)benzonitrile]: below 10 nM.
The result for `CCOc1ncccc1-c1ccc(C2CCN(c3ccc(C(F)(F)F)nc3C#N)CC2)c(OCCNC)n1` [3-2, 3-(4-{2′-ethoxy-6-[2-(methylamino)ethoxy]-[2,3′-bipyridin]-5-yl}piperidin-1-yl)-6-(trifluoromethyl)pyridine-2-carbonitrile] reads below 10 nM; that for `CCOc1ncccc1-c1ccc(N2CCN(C(=O)c3ccc(F)cc3Cl)C[C@H]2CC)c(-c2nnc(CN)[nH]2)n1` [4-2, 1-(5-{5-[(2R)-4-(2-chloro-4-fluorobenzoyl)-2-ethylpiperazin-1-yl]-2′-ethoxy-[2,3′-bipyridin]-6-yl}-4H-1,2,4-triazol-3-yl)methanamine], 10 to 100 nM; that for `CCOc1ncccc1-c1ccc(N2CCN(C(=O)c3ccc(F)cc3Cl)C[C@H]2CC)c(-c2nnc(N)[nH]2)n1` [4-3, (R)-(4-(6-(5-amino-4H-1,2,4-triazol-3-yl)-2′-ethoxy-[2,3′-bipyridin]-5-yl)-3-ethylpiperazin-1-yl)(2-chloro-4-fluorophenyl)methanone], 100 to 1000 nM.
